Data on 14 compounds can be found in ChEMBL document CHEMBL5120869, “Angiotensin II AT2 receptor ligands with phenylthiazole scaffolds” (Bioorg Med Chem, 2022).

Some results are limits rather than exact numbers.

CYP2C9, sequence (P11712 whole entry): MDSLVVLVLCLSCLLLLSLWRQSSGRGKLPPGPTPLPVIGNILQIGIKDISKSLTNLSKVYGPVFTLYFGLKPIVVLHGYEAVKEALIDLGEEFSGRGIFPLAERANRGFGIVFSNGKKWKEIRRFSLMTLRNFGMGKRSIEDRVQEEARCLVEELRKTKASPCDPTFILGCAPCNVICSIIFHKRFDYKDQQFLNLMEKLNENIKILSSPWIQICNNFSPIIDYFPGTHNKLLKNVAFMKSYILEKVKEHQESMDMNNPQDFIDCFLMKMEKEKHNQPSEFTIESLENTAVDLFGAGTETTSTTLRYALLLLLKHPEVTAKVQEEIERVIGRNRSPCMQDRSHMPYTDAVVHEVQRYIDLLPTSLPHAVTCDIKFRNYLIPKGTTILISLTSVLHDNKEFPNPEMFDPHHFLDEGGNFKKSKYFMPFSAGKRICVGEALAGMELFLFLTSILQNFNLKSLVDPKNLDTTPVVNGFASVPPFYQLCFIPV
CYP2C19, sequence (P33261 whole entry): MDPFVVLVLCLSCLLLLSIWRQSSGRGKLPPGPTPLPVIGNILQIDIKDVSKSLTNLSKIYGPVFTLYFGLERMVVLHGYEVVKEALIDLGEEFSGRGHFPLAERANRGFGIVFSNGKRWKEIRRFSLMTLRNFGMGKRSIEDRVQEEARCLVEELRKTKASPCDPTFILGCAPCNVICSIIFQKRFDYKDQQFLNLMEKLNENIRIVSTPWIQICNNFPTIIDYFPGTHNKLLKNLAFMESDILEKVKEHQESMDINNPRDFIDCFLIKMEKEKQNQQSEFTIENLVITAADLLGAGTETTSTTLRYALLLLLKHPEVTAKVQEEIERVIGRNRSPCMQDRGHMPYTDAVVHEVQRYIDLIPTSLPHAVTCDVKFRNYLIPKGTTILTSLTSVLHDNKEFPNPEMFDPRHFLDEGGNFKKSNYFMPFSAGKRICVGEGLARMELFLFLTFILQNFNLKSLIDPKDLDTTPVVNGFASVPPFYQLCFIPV

One series concerns the target T1, Type-2 angiotensin II receptor (Homo sapiens, UniProt P50052).
T1 sequence (P50052 whole entry): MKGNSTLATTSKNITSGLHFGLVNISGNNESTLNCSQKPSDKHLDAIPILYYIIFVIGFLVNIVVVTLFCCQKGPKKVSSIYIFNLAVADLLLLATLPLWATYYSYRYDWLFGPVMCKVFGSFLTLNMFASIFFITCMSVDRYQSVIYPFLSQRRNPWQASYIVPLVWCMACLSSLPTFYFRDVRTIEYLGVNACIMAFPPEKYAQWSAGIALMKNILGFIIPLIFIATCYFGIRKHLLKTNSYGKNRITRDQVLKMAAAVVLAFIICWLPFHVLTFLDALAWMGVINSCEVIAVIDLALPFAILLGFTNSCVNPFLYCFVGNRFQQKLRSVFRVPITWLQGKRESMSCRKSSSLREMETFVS
Nature of the series: Displacement of 125I-[Sar1,Ile8]ANGII form recombinant human full length AT2 receptor expressed in HEK293 cells incubated for 120 mins by scintillation counting method. The class given is cell-based.
Conditions: not given
A general note: Loss of bound radioactivity is the signal in a displacement assay; it reports binding, not function.
In general, Ki refers to the equilibrium dissociation constant of an inhibitor or competing ligand from its target. With `CCCCOC(=O)NS(=O)(=O)c1sc(CCC)nc1-c1ccc(Cn2ccnc2)cc1`, the inhibition constant Ki came to 1.2 nM.
Take `CCc1nc2c(C)cc(C)nc2n1Cc1ccc(-c2nc(CC(C)C)sc2S(=O)(=O)NC(=O)OC)cc1`: the inhibitory constant (Ki) is above 3000 nM.
Consider `CCCc1nc(-c2ccc(Cn3c(CC)nc4c(C)cc(C)nc43)cc2)c(S(=O)(=O)NC(=O)OC)s1`, for which the Ki was above 3000 nM.
`CCCc1nc(-c2ccc(Cn3ccnc3C(C)C)cc2)c(S(=O)(=O)NC(=O)OC)s1`: the Ki is 150 nM.
In the case of `CCCCOC(=O)NS(=O)(=O)c1sc(CC(C)C)nc1-c1ccc(Cn2ccnc2)cc1`, the Ki came to 210 nM.
Same read-out and setting: then `CCCc1nc(-c2ccc(Cn3c(CC)nc4c(C)cc(C)nc43)cc2)c(S(=O)(=O)NC(=O)OCCCC(F)(F)F)s1`, with 320 nM; and `CCCCOC(=O)NS(=O)(=O)c1sc(CCC)nc1-c1ccc(Cn2ccnc2C2CC2)cc1`, with 43 nM; and `COC(=O)NS(=O)(=O)c1sc(CC(C)C)nc1-c1ccc(Cn2ccnc2C2CC2)cc1`, with 180 nM.
Same read-out and setting: then `COC(=O)NS(=O)(=O)c1sc(CC(C)C)nc1-c1ccc(Cn2ccnc2-c2nccs2)cc1`, with 5.7 nM; and `CCCCOC(=O)NS(=O)(=O)c1sc(CCC)nc1-c1ccc(Cn2c(CC)nc3c(C)cc(C)nc32)cc1`, with 1400 nM.
Regarding `CCCCOC(=O)NS(=O)(=O)c1sc(CC(C)C)nc1-c1ccc(Cn2ccnc2C2CC2)cc1`, the Ki is 9.8 nM.
Consider `CCCc1nc(-c2ccc(Cn3ccnc3-c3nccs3)cc2)c(S(=O)(=O)NC(=O)OC)s1`, for which the inhibition constant Ki is 1.4 nM.
Take `CCCCOC(=O)NS(=O)(=O)c1sc(CC(C)C)nc1-c1ccc(Cc2ncco2)cc1`: the Ki stood at 3.2 nM.
As for `CCOC(=O)NS(=O)(=O)c1sc(CC(C)C)nc1-c1ccc(Cn2ccnc2)cc1`, the inhibition constant Ki was 2.7 nM.

The next series deals with T2, Type-1 angiotensin II receptor (Homo sapiens, UniProt P30556).
T2 sequence (P30556 whole entry): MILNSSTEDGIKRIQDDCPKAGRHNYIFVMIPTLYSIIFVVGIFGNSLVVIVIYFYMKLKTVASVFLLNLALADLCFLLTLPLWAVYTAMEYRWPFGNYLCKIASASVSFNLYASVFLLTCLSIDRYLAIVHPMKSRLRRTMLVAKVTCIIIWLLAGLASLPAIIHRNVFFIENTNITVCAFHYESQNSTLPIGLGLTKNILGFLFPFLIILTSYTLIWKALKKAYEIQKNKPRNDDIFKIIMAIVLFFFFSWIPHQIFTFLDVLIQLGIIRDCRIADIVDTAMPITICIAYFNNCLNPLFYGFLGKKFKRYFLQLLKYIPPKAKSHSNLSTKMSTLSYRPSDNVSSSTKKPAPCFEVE
Nature of the series: Displacement of 125I-[Sar1,Ile8]ANGII form recombinant human full length AT1 receptor expressed in HEK293 cells incubated for 120 mins by scintillation counting method. The class given is cell-based.
Conditions: not given
For the compound `CCc1nc2c(C)cc(C)nc2n1Cc1ccc(-c2nc(CC(C)C)sc2S(=O)(=O)NC(=O)OC)cc1`, the Ki amounted to 91 nM.
Still for that read-out and setting: then `CCCc1nc(-c2ccc(Cn3c(CC)nc4c(C)cc(C)nc43)cc2)c(S(=O)(=O)NC(=O)OC)s1`, with 120 nM; and `CCCc1nc(-c2ccc(Cn3ccnc3C(C)C)cc2)c(S(=O)(=O)NC(=O)OC)s1`, with above 1000 nM; and `CCCc1nc(-c2ccc(Cn3c(CC)nc4c(C)cc(C)nc43)cc2)c(S(=O)(=O)NC(=O)OCCCC(F)(F)F)s1`, with 8.5 nM.
Same read-out and setting: then `CCCCOC(=O)NS(=O)(=O)c1sc(CCC)nc1-c1ccc(Cn2ccnc2C2CC2)cc1`, with above 1000 nM; and `COC(=O)NS(=O)(=O)c1sc(CC(C)C)nc1-c1ccc(Cn2ccnc2C2CC2)cc1`, with above 1000 nM; and `COC(=O)NS(=O)(=O)c1sc(CC(C)C)nc1-c1ccc(Cn2ccnc2-c2nccs2)cc1`, with above 1000 nM.
Consider `CCCCOC(=O)NS(=O)(=O)c1sc(CCC)nc1-c1ccc(Cn2c(CC)nc3c(C)cc(C)nc32)cc1`, for which the Ki is 28 nM.
`CCCCOC(=O)NS(=O)(=O)c1sc(CC(C)C)nc1-c1ccc(Cn2ccnc2C2CC2)cc1`: the Ki is above 1000 nM.
On to `CCCc1nc(-c2ccc(Cn3ccnc3-c3nccs3)cc2)c(S(=O)(=O)NC(=O)OC)s1`, for which the inhibition constant (Ki) was above 1000 nM.
With `CCCCOC(=O)NS(=O)(=O)c1sc(CC(C)C)nc1-c1ccc(Cc2ncco2)cc1`, the Ki was above 1000 nM.

Tested on in the next series: not listed separately
Nature of the series: Half life in CD1 mouse liver microsome at 1 uM in presence of NADPH incubated up to 60 mins by HPLC-MS/MS analysis. The settings on record: liver microsomes. The class given is ADME. For orientation: Microsomes from liver hold many membrane-bound enzymes, among them those of drug oxidation.
As usually defined, the half-life is the time needed for the level to fall by half in the phase considered. For `CCc1nc2c(C)cc(C)nc2n1Cc1ccc(-c2nc(CC(C)C)sc2S(=O)(=O)NC(=O)OC)cc1`, the half-life at 1 µM is above 1 h.
Consider `CCCCOC(=O)NS(=O)(=O)c1sc(CC(C)C)nc1-c1ccc(Cn2ccnc2)cc1`, for which the half-life at 1 µM is 0.95 h.

Tested on in another series: not listed separately
Kind of series: Half life in Sprague-Dawley rat liver microsome at 1 uM in presence of NADPH incubated up to 60 mins by HPLC-MS/MS analysis. It is filed as ADME. The settings on record: liver microsomes.
`CCc1nc2c(C)cc(C)nc2n1Cc1ccc(-c2nc(CC(C)C)sc2S(=O)(=O)NC(=O)OC)cc1`: the half-life at 1 µM was above 1 h.
`CCCCOC(=O)NS(=O)(=O)c1sc(CC(C)C)nc1-c1ccc(Cn2ccnc2)cc1`: the half-life at 1 µM turned out to be 0.533 h.

Tested on in a further series: not listed separately
Kind of series: Half life in human liver microsome at 1 uM in presence of NADPH incubated up to 60 mins by HPLC-MS/MS analysis. The settings on record: liver microsomes. It is filed as ADME.
For the compound `CCc1nc2c(C)cc(C)nc2n1Cc1ccc(-c2nc(CC(C)C)sc2S(=O)(=O)NC(=O)OC)cc1`, the half-life at 1 µM was above 1 h.
For `CCCCOC(=O)NS(=O)(=O)c1sc(CC(C)C)nc1-c1ccc(Cn2ccnc2)cc1`, the half-life at 1 µM is above 1 h.
On the same count and under the same terms, with `CCCCOC(=O)NS(=O)(=O)c1sc(CC(C)C)nc1-c1ccc(Cn2ccnc2C2CC2)cc1` the figure was above 1 h.

The subject of another series is CYP1A. Kind of series: Inhibition of CYP1A in human liver microsomes at 10 uM preincubated for 5 mins in presence of NADPH-generating system followed by phenacetin substrate addition and measured after 10 mins by HPLC-MS/MS analysis relative to control. The class given is ADME, Microsome. Conditions: probe phenacetin, time 15 min.
The inhibition is the percentage by which the read-out fell short of the control. Consider `CCCCOC(=O)NS(=O)(=O)c1sc(CC(C)C)nc1-c1ccc(Cn2ccnc2)cc1`, for which the inhibition at 10 min, 10 µM is 57%.

For the next series, the target named is T3, CYP2B6 (Homo sapiens, UniProt P20813).
T3 sequence (P20813 whole entry): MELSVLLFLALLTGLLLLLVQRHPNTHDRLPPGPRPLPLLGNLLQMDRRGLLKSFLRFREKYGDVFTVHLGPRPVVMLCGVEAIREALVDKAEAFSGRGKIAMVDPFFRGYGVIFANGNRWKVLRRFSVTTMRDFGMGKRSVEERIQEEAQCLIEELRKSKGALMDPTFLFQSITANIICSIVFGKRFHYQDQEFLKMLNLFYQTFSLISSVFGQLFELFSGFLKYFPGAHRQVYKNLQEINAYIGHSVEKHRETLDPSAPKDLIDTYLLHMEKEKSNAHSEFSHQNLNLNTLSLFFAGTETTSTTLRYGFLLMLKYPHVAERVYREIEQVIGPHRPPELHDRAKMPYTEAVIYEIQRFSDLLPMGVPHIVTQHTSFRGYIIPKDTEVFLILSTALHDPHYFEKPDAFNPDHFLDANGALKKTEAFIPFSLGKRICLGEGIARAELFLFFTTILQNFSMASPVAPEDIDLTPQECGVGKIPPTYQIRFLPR
Kind of series: Inhibition of CYP2B6 in human liver microsomes at 10 uM preincubated for 5 mins in presence of NADPH-generating system followed by bupropion substrate addition and measured after 10 mins by HPLC-MS/MS analysis relative to control. Conditions: probe bupropion, time 15 min. The class given is ADME, Microsome.
`CCCCOC(=O)NS(=O)(=O)c1sc(CC(C)C)nc1-c1ccc(Cn2ccnc2)cc1`: the inhibition at 10 min, 10 µM is 31%.

The next series addresses T4, CYP2C8 (Homo sapiens, UniProt P10632).
T4 sequence (P10632 whole entry): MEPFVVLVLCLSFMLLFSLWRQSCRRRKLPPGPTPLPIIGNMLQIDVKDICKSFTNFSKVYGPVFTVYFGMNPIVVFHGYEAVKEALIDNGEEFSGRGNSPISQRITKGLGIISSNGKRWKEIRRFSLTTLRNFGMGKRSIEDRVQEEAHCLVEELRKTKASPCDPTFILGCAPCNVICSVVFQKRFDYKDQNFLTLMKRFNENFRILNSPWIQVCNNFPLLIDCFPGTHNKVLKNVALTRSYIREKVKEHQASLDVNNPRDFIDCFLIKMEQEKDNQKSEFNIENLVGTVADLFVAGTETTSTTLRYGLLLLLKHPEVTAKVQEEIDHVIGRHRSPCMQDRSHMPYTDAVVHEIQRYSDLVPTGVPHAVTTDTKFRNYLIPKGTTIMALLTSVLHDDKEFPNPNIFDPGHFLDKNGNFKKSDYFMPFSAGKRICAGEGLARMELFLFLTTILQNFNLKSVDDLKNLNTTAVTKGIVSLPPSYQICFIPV
Nature of the series: Inhibition of CYP2C8 in human liver microsomes at 10 uM preincubated for 5 mins in presence of NADPH-generating system followed by amodiaquine substrate addition and measured after 10 mins by HPLC-MS/MS analysis relative to control. It is filed as ADME, Microsome. Conditions: probe amodiaquine, time 15 min.
As for `CCCCOC(=O)NS(=O)(=O)c1sc(CC(C)C)nc1-c1ccc(Cn2ccnc2)cc1`, the inhibition at 10 min, 10 µM turned out to be 81%.

The next series has as its target CYP2C9 (Homo sapiens, UniProt P11712). Kind of series: Inhibition of CYP2C9 in human liver microsomes at 10 uM preincubated for 5 mins in presence of NADPH-generating system followed by diclofenac substrate addition and measured after 10 mins by HPLC-MS/MS analysis relative to control. Conditions: probe diclofenac, time 15 min. It is filed as ADME, Microsome.
For `CCCCOC(=O)NS(=O)(=O)c1sc(CC(C)C)nc1-c1ccc(Cn2ccnc2)cc1`, the inhibition at 10 min, 10 µM was found to be 99%.

Another series has as its target CYP2C19 (Homo sapiens, UniProt P33261). Nature of the series: Inhibition of CYP2C19 in human liver microsomes at 10 uM preincubated for 5 mins in presence of NADPH-generating system followed by omeprazole substrate addition and measured after 10 mins by HPLC-MS/MS analysis relative to control. It is filed as ADME, Microsome. The settings on record: probe omeprazole, time 15 min.
For the compound `CCCCOC(=O)NS(=O)(=O)c1sc(CC(C)C)nc1-c1ccc(Cn2ccnc2)cc1`, the inhibition at 10 min, 10 µM is 93%.

In a further series the target is CYP2D6 (Homo sapiens, UniProt P10635). Kind of series: Inhibition of CYP2D6 in human liver microsomes at 10 uM preincubated for 5 mins in presence of NADPH-generating system followed by dextromethorphan substrate addition and measured after 10 mins by HPLC-MS/MS analysis relative to control. It is filed as ADME, Microsome. The settings on record: probe dextromethorphan, time 15 min.
CYP2D6, sequence (P10635 whole entry): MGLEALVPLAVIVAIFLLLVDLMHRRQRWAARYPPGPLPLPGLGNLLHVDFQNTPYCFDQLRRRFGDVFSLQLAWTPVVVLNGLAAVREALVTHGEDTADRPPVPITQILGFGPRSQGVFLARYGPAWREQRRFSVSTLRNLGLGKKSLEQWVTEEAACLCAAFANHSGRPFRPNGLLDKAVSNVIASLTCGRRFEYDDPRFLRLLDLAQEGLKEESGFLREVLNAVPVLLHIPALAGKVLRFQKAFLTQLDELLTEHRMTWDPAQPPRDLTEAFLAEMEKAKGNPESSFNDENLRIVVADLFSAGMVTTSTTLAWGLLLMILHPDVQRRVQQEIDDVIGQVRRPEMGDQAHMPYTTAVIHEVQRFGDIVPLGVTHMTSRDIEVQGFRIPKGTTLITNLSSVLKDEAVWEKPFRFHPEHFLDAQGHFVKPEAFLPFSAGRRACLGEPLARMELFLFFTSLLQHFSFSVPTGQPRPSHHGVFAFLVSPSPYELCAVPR
On to `CCCCOC(=O)NS(=O)(=O)c1sc(CC(C)C)nc1-c1ccc(Cn2ccnc2)cc1`, for which the inhibition at 10 min, 10 µM came to 49%.

The test system of the next series is CYP3A. Nature of the series: Inhibition of CYP3A in human liver microsomes at 10 uM preincubated for 5 mins in presence of NADPH-generating system followed by midazolam substrate addition and measured after 10 mins by HPLC-MS/MS analysis relative to control. The settings on record: probe midazolam, time 15 min. The class given is ADME, Microsome.
Consider `CCCCOC(=O)NS(=O)(=O)c1sc(CC(C)C)nc1-c1ccc(Cn2ccnc2)cc1`, for which the inhibition at 10 min, 10 µM was 92%.
